In PubChem BioAssay (NCI) one finds GI50 and TGI data, which are given here for eight compounds.

Among the test systems are A498 renal; IGROV1 ovarian; SR leukemia; 786-0 renal; KM12 colon; SF-268 CNS; LOX IMVI melanoma; SF-539 CNS; NCI-H522 lung; CCRF-CEM leukemia.
Experiment in all cases: growth of human tumour cells (NCI), 48 h

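Five compound concentrations were applied to cells in 96-well plates for 48 hours; endpoints were derived by simple linear interpolation of the resulting dose-response curve. The concentration for 50% growth inhibition is given as GI50. The concentration for full growth arrest is given as TGI.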

As to `COc1cc2c(cc1OC)C(=O)C(Br)CC2` (centres undefined), the GI50 in the experiment with A498 renal is 11.3 µM; in the experiment with IGROV1 ovarian, 6.23 µM; with SR leukemia, 3.49 µM; with 786-0 renal, 4.01 µM; in the experiment on KM12 colon, 5.77 µM; with SF-268 CNS it was 4.36 µM. The GI50 was 1.74 µM with LOX IMVI melanoma, 3.12 µM with SF-539 CNS, 1.57 µM in the experiment on NCI-H522 lung and 2.82 µM with CCRF-CEM leukemia. Besides, the TGI in the experiment with A498 renal is 23.6 µM; in the experiment on IGROV1 ovarian, 19.7 µM; in the experiment on SR leukemia, over 100 µM; with 786-0 renal, 13.4 µM; in the experiment on KM12 colon it was 19.3 µM; with SF-268 CNS, 15.7 µM. Further, the TGI amounted to 3.34 µM in the experiment on LOX IMVI melanoma, 11.2 µM in the experiment with SF-539 CNS, 3.17 µM with NCI-H522 lung and 11.9 µM in the experiment on CCRF-CEM leukemia.

Turning to `COC(=O)[C@]12CC[C@@H](C)[C@H](C)[C@@H]1C1=CC[C@@H]3[C@@]4(C)CC(=O)[C@H](O)[C@@]5(C)COC(=C45)C[C@@]3(C)[C@]1(C)CC2`, the GI50 was 18.5 µM with A498 renal; 19.3 µM in the experiment on IGROV1 ovarian; 20.4 µM with SR leukemia; 17.8 µM in the experiment on 786-0 renal; 17.7 µM in the experiment on KM12 colon; 19.2 µM in the experiment on SF-268 CNS. Also, the GI50 was 17 µM in the experiment on LOX IMVI melanoma, 18.8 µM with SF-539 CNS, 19.4 µM in the experiment with NCI-H522 lung and 19.7 µM in the experiment with CCRF-CEM leukemia. Further, the TGI in the experiment with A498 renal turned out to be 33.2 µM; in the experiment with IGROV1 ovarian it was 37.6 µM; with SR leukemia, 45.2 µM; with 786-0 renal, 34.2 µM; in the experiment on KM12 colon, 33.8 µM; in the experiment with SF-268 CNS, 37.8 µM. Also, the TGI is 31.1 µM in the experiment with LOX IMVI melanoma, 37.2 µM with SF-539 CNS, 35.7 µM with NCI-H522 lung and 43.5 µM in the experiment with CCRF-CEM leukemia.

Consider `Cc1c(NC(=O)C(=O)N=NC(=O)c2ccncc2)c(O)c2ccccc2c1O`, for which the TGI was 43.5 µM in the experiment with A498 renal; 28.5 µM in the experiment with IGROV1 ovarian; over 36.4 µM in the experiment on SR leukemia; 59.2 µM in the experiment on 786-0 renal; over 100 µM with KM12 colon; 60.5 µM with SF-268 CNS. For the same compound, the TGI with LOX IMVI melanoma is 19.1 µM; in the experiment on SF-539 CNS it was 33.3 µM; with NCI-H522 lung, 26.2 µM; with CCRF-CEM leukemia, over 87 µM.

Consider `CNC(=O)OCc1nc(SC(C)C)n(C)c1COC(=O)NC`, for which the TGI in the experiment on A498 renal, in the experiment on IGROV1 ovarian, with SR leukemia, in the experiment on 786-0 renal, with KM12 colon and in the experiment on SF-268 CNS was over 100 µM in each case. Moreover, the TGI in the experiment on LOX IMVI melanoma is over 100 µM; with SF-539 CNS, over 100 µM; in the experiment with NCI-H522 lung, over 100 µM; with CCRF-CEM leukemia, over 88 µM.

With `O=C(CCCc1c[nH]c2ccccc12)NC1CC(=O)c2c(Br)sc(Br)c21` (centres undefined), the GI50 with A498 renal is 24.2 µM; with IGROV1 ovarian, 9.05 µM; with SR leukemia, 2.62 µM; with 786-0 renal it was 19.2 µM; in the experiment with KM12 colon it was 23.5 µM; in the experiment on SF-268 CNS it was 10.5 µM. Further, the GI50 with LOX IMVI melanoma was 1.9 µM; in the experiment on SF-539 CNS it was 23.1 µM; in the experiment on NCI-H522 lung, 21.1 µM; in the experiment on CCRF-CEM leukemia, 12.9 µM. The TGI with A498 renal is 40.5 µM; with IGROV1 ovarian, 40.5 µM; with SR leukemia it was 6.79 µM; in the experiment on 786-0 renal it was 34.9 µM; with KM12 colon it was 71.2 µM; in the experiment with SF-268 CNS, 27.1 µM. Also, the TGI in the experiment with LOX IMVI melanoma was 3.75 µM; in the experiment on SF-539 CNS, 50.1 µM; in the experiment on NCI-H522 lung, 52.2 µM; in the experiment with CCRF-CEM leukemia, over 100 µM.

As to `COc1ccc(-c2cc(-c3ccc(Nc4nc(Nc5ccc(Cl)cc5)nc(Nc5ccc(Cl)cc5)n4)cc3)nc(N)c2C#N)cc1`, the GI50 in the experiment with A498 renal is 2.3 µM; in the experiment with IGROV1 ovarian, 2.25 µM; in the experiment on SR leukemia it was 0.485 µM; in the experiment with 786-0 renal it was 2.24 µM; in the experiment on KM12 colon, 1.95 µM; with SF-268 CNS it was 2.88 µM. Moreover, the GI50 in the experiment on LOX IMVI melanoma is 1.4 µM; in the experiment with SF-539 CNS, 2.02 µM; in the experiment on NCI-H522 lung it was 1.75 µM; with CCRF-CEM leukemia it was 0.929 µM. Also, the TGI with A498 renal came out at 5.84 µM; in the experiment with IGROV1 ovarian, 5.88 µM; in the experiment on SR leukemia, 3.29 µM; with 786-0 renal, 5.68 µM; in the experiment with KM12 colon, 4.24 µM; with SF-268 CNS, 8.38 µM. Also, the TGI with LOX IMVI melanoma is 2.73 µM; in the experiment with SF-539 CNS, 4.15 µM; in the experiment on NCI-H522 lung, 5.53 µM; in the experiment on CCRF-CEM leukemia it was over 27.6 µM.

`COC(=O)c1cnc(=O)n(C2CC(O)C(CO)O2)c1` (centres undefined): the GI50 with A498 renal, with IGROV1 ovarian, in the experiment on SR leukemia, in the experiment with 786-0 renal, in the experiment with KM12 colon and in the experiment on SF-268 CNS was over 100 µM in each case. In addition, the GI50 with LOX IMVI melanoma, in the experiment on SF-539 CNS and in the experiment with NCI-H522 lung was over 100 µM each time. Moreover, the TGI in the experiment with A498 renal, in the experiment with IGROV1 ovarian, in the experiment on SR leukemia, in the experiment on 786-0 renal, in the experiment on KM12 colon and with SF-268 CNS was over 100 µM throughout. In addition, the TGI with LOX IMVI melanoma, with SF-539 CNS, with NCI-H522 lung and in the experiment with CCRF-CEM leukemia was over 100 µM throughout.

Consider `O=C(c1cccs1)c1c(C(F)(F)F)n([O-])c2ccc(C(F)(F)F)cc2[n+]1=O`, for which the GI50 with A498 renal is 1.65 µM; in the experiment with IGROV1 ovarian it was 0.132 µM; in the experiment with SR leukemia, 0.301 µM; with 786-0 renal, 0.188 µM; with KM12 colon, 0.295 µM; in the experiment on SF-268 CNS, 0.182 µM. The GI50 was 0.0571 µM with LOX IMVI melanoma, 0.183 µM in the experiment on SF-539 CNS, 0.204 µM in the experiment with NCI-H522 lung and 0.224 µM with CCRF-CEM leukemia. Further, the TGI in the experiment on A498 renal stood at 3.04 µM; in the experiment with IGROV1 ovarian, 0.278 µM; in the experiment on SR leukemia, 1.28 µM; with 786-0 renal it was 0.339 µM; with KM12 colon it was 0.774 µM; in the experiment with SF-268 CNS, 0.355 µM. The TGI in the experiment with LOX IMVI melanoma came to 0.127 µM; in the experiment with SF-539 CNS it was 0.36 µM; with NCI-H522 lung it was 0.455 µM; with CCRF-CEM leukemia, 2.11 µM.
